The source of these data is patent US20040072801A1, “Sterols bearing pendant allosteric effectors of hemoglobin, and uses thereof” (priority 2002, published 2004).

The subject of data set [1] is C57B1/6 mice. Briefly: Tolerability and pharmacodynamics of SV184 and SV192 after iv injection. Conditions: for Number of mice died: 2 mice injected. Format: in vivo, mouse.
Data set [2] relates to human RBCs in whole blood. Briefly: P50 of RBCs after in vitro incubation of human whole blood with effector (Hemox Analyzer). Conditions: for P50 Increase % / P50 mm HG EFF:WB: EFF:WB 1:1.5; for lysis of red blood cells (hemolysis): tested on whole blood.
Experimental: P50 of effector incubated with RBC were recorded using a Hemox Analyzer and a HAS software from TCS Scientific (New Hope, Pa.). The reading solution consisted of an aliquot of RBCs to meet instrument parameters and 20 mM Hemox buffer (Osm=310±10 mOsM, pH=7.1-7.2) at 37° C.
Incubation: Whole blood (75-300 μL) was incubated with 200 μL of effector at 37° C. for 5-10 min.
Washes: After incubation of whole blood with/without effector, blood cells were washed four times with Saline buffer or HBS (BSA) by centrifugal pelleting to remove exogenous effector and to evaluate hemolysis. After final centrifugation, pellet was not resuspended.
Blood Oxygen Dissociation Reading: Blood Oxygen Dissociation of samples were determined using a Hemox Analizer Model B (TCS Medical Products Company, New Hope, Pa.).
The P50s were calculated from the Dissociation Curves compared to same day control P50.
The target of the next data set is Free Hemoglobin (Homo sapiens, UniProt P68871). Briefly: P50 of free hemoglobin with effector (Table 1). Format: biochemical. Conditions: ratio 1:1 (2.5 mM:2.5 mM), pH 7.1-7.2, 37° C. From the text:
The sample chamger contained:

The test system of data set [3] is C57B1/6 mice. The data set is described as follows: Tolerability and pharmacodynamics of SV184 and SV192 after iv injection. It counts as in vivo, mouse. As to the method: The tolerability and pharmacodynamics of the compounds SV184 and SV192 were tested in a small number of C57B1/6 mice. Mice receiving the whole volume of 200 μL of (30 mM) effector solution died immediately after injection or during injection (injection time 10-20 min). Eight mice receiving less than 200 μL of the compound solution survived. These mice were fast breathing and shaking, but recovered after 4 hours. […] Therefore, new derivatives were synthesized in our labs.

Entries after “also recorded” stand apart in the source; their conditions may differ.

Chain of Free Hemoglobin (P69905 2-142 partner limits assumed): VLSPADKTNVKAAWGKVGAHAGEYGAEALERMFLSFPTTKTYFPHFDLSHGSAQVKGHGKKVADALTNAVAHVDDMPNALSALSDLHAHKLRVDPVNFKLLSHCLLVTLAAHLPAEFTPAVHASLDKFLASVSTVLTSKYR
Chain of Free Hemoglobin (P68871 2-147 limits assumed): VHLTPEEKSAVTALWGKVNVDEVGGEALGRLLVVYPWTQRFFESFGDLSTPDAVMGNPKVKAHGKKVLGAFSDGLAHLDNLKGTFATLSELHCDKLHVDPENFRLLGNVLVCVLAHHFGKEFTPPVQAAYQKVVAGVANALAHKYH

On to `CC(C)CCCC(C)C1CCC2C3CC=C4CC(OC(=O)OP(=O)(O)OC5C(OP(=O)(O)O)C(OP(=O)(O)O)C(OP(=O)(O)O)C(OP(=O)(O)O)C5OP(=O)(O)O)CCC4(C)C3CCC12C.CN(C)C1CCCCC1.CN(C)C1CCCCC1.CN(C)C1CCCCC1.CN(C)C1CCCCC1.CN(C)C1CCCCC1.CN(C)C1CCCCC1.CN(C)C1CCCCC1.CN(C)C1CCCCC1` (stereo not drawn) [SV192, Inositol hexaphosphate-cholesteroloxycarbonyl, octa N,N-dimethyl-cyclohexylammonium salt], for which the “Shift of P50 %” value in the data set on C57B1/6 mice [1] (iv 135 μL of 30 nM) is under 3%. Also, the “Number of mice died” value in the data set on C57B1/6 mice [1] (iv 135 μL of 30 mM) amounted to 0; in the data set on C57B1/6 mice [1] (iv 165 μL of 30 mM) it was 2; with C57B1/6 mice [3] (iv 200 μL of 30 mM, 1 mouse injected), 1. In addition, the “lysis of RBC on incubation” value in data set [2] (human WB, EFF:WB 1:0.375, 224 mOsM, 30 mM) is recorded as “Lyses; also recorded: lysis”. In addition, the “P50 Increase %” value is on record as 26% in data set [2] (human WB, 224 mOsM, 30 mM) and 25% in data set [2] (human WB, 310 mOsM, 30 mM). In addition, the “P50 mm HG EFF:WB” value in data set [2] (human WB, 224 mOsM, 30 mM) is reported as 29.5 mm Hg; in data set [2] (human WB, 310 mOsM, 30 mM) it was 30 mm Hg. In addition, in data set [2] (physiological or nearly physiological osmotic pressure, in vitro whole blood), the “lysis of the RBC” value is given as “no lysis”. The “lysis of red blood cells (hemolysis)” value in data set [2] (listed as 2b) was “did not trigger hemolysis”; in data set [2] (listed as IHP-cholesterol derivative with N,N-dimethyl-cyclohexylammonium countercations) it was “without any detectable cell lysis”. For the same compound, the “P50 mm Hg EFF:WB (fHb)” value on Free Hemoglobin was determined as 32.5 mm Hg. For the same compound, the “toxicity upon iv injection in mice” value in the data set with C57B1/6 mice [3] (iv, 30 mM effector solution) is given as “high level of toxicity”. The “shift of P50 in blood of surviving mice” value with C57B1/6 mice [3] (less than 200 μL iv, blood taken 4 and 24 hours after injection) is on record as “did not show a significant shift of P50”.
